Source: US9012431B2, “Boron-containing small molecules as anti-inflammatory agents” (Anacor Pharmaceuticals, Inc., priority 2008, dated 2015)

How the values were obtained:
TNF-α = test: Cytokine assay, TNF-α release from PBMC; assay type: cell-based; conditions: 1 μg/mL LPS; for IC50: Homo sapiens, PBMC, 24 h, supernatant at 24 hours; for inhibition at 10 µM: human PBMC, 24 hours
Procedure: (§1) The ability of the compounds described herein to inhibit pro-inflammatory cytokines or phsophodiesterases were tested.
(§2) Frozen human peripheral blood mononucleocytes (PBMC) were thawed and centrifuged. Cryopreservation media was aspirated off of the cell pellet, and the cells were resuspended in fresh culture media (CM) comprising RPMI 1640 and 10% FBS in 96 well plates. Test article was dissolved in DMSO to form a 10 mM sample (DMSO, 100%). The 10 mM samples were diluted to 100 μM in CM (DMSO, 1%), then further diluted to 10, 1, 0.1, 0.01 μM in 200 μL of CM (n=3). […] IL-23 was assayed using a commercial ELISA kit (R&D Systems).

IL-2 = test: Cytokine assay, IL-2 release from PBMC; assay type: cell-based; conditions: human PBMC, 20 ug/mL PHA; for IC50: supernatant at 24 hours; for inhibition at 10 µM: 24 hours
Procedure: as §1, §2

IFN-γ = test: Cytokine assay, IFN-γ release from PBMC; assay type: cell-based; conditions: human PBMC, 20 ug/mL PHA; for IC50: supernatant at 24 hours; for inhibition at 10 µM: 24 hours
Procedure: as §1, §2

IL-5 = test: Cytokine assay, IL-5 release from PBMC; assay type: cell-based; conditions: human PBMC, 20 ug/mL PHA; for IC50: supernatant at 48 hours; for inhibition at 10 µM: 48 hours
Procedure: as §1, §2

IL-10 = test: Cytokine assay, IL-10 release from PBMC; assay type: cell-based; conditions: human PBMC, 20 ug/mL PHA; for IC50: supernatant at 48 hours; for inhibition at 10 µM: 48 hours
Procedure: as §1, §2

[1] = tested on: T1, PDE4 partially purified from human U-937 myeloid leukemia cells; test: PDE4 Assay (enzyme from U-937 cells, [3H]cAMP); assay type: biochemical; conditions: PDE4 from U-937 cells, Tris buffer pH 7.5, 20 minutes at 25° C.
T1 construct: PDE4 partially purified from human U-937 myeloid leukemia cells was used
Procedure: Test article and/or vehicle was incubated with 0.2 mg enzyme and 1 mM cAMP containing 0.01 mM [3H]cAMP in Tris buffer pH 7.5 for 20 minutes at 25° C. The reaction was terminated by boiling for 2 minutes and the resulting AMP is converted to adenosine by addition of 10 mg/ml snake venom nucleotidase and further incubation at 37° C. for 10 minutes. Unhydrolyzed cAMP is bound to AG1-X2 resin, and remaining [3H]Adenosine in the aqueous phase is quantitated by scintillation counting.

Row | Structure (SMILES) | IC50 (TNF-α) [µM] | IC50 (IL-2) [µM] | IC50 (IFN-γ) [µM] | IC50 (IL-5) [µM] | IC50 (IL-10) [µM] | IC50 [1] [µM] | inhibition at 10 µM (TNF-α) [%] | inhibition at 10 µM (IL-2) [%] | inhibition at 10 µM (IFN-γ) [%] | inhibition at 10 µM (IL-5) [%] | inhibition at 10 µM (IL-10) [%]
1 | N#Cc1ccc(Oc2ccc3c(c2)COB3O)cc1C(=O)O [D8, 5-(3-Carboxy-4-cyanophenoxy)-1,3-dihydro-1-hydroxy-2,1-benzoxaborole] | > 10 | 1 to 4 | > 10 | > 10 | > 10 |  |  |  |  |  | 
2 | N#Cc1ccc(Oc2ccc3c(c2)COB3O)c(OCC(=O)O)c1 [D17, 5-[2-(Carboxymethoxy)-4-cyanophenoxy]-1,3-dihydro-1-hydroxy-2,1-benzoxaborole] | 4 to 10 | > 10 | > 10 |  |  | < 1 |  |  |  |  | 
3 | O=C(O)c1ccc(Oc2ccc3c(c2)COB3O)c(O)c1 [D18, 5-(4-Carboxy-2-hydroxyphenoxy)-1,3-dihydro-1-hydroxy-2,1-benzoxaborole] | > 10 | > 10 | > 10 |  |  |  |  |  |  |  | 
4 | CCOC(=O)c1ccc(Oc2ccc3c(c2)COB3O)c(O)c1 [D19, 5-(4-Ethoxycarbonyl-2-hydroxyphenoxy)-1,3-dihydro-1-hydroxy-2,1-benzoxaborole] | 1 to 4 | 1 to 4 | 1 to 4 |  |  | < 1 |  |  |  |  | 
5 | CCOC(=O)c1ccc(Oc2ccc3c(c2)COB3O)c(OC)c1 [D20, 5-(4-Ethoxycarbonyl-2-methoxyphenoxy)-1,3-dihydro-1-hydroxy-2,1-benzoxaborole] | < 1 | < 1 | < 1 |  |  | < 1 |  |  |  |  | 
6 | CCOC(=O)c1ccc(Oc2ccc3c(c2)COB3O)c(OC2CCCC2)c1 [D21, 5-[4-Ethoxycarbonyl-2-(cyclopentyloxy)phenoxy]-1,3-dihydro-1-hydroxy-2,1-benzoxaborole] | 1 to 4 | < 1 | < 1 |  |  | < 1 |  |  |  |  | 
7 | N#Cc1ccc(Oc2ccc3c(c2)COB3O)c(C=O)c1 [D23, 5-(4-Cyano-2-formylphenoxy)-1,3-dihydro-1-hydroxy-2,1-benzoxaborole] | 4 to 10 |  |  |  |  |  |  |  |  |  | 
8 | N#Cc1ccc(Oc2ccc3c(c2)COB3O)cc1OCC(=O)O [D39, [2-Cyano-5-(1-hydroxy-1,3-dihydro-benzo[c][1,2]oxaborol-5-yloxy)-phenoxy]-acetic acid] |  |  |  |  |  |  | 30 to 60 | 30 to 60 | 30 to 60 | < 30 | 
9 | CC1CCN(C(=O)COc2cc(Oc3ccc4c(c3)COB4O)ccc2C#N)CC1 [D42, 4-(1-Hydroxy-1,3-dihydro-benzo[c][1,2]oxaborol-5-yloxy)-2-[2-(4-methyl-piperidin-1-yl)-2-oxo-ethoxy]-benzonitrile] |  |  |  |  |  |  | 60 to 90 | 90 to 100 | 90 to 100 | 60 to 90 | 60 to 90
10 | C[NH+]1CCN(C(=O)COc2cc(Oc3ccc4c(c3)COB4O)ccc2C#N)CC1 [D43, 4-(1-Hydroxy-1,3-dihydro-benzo[c][1,2]oxaborol-5-yloxy)-2-[2-(4-methyl-piperazin-1-yl)-2-oxo-ethoxy]-benzonitrile hexafluorophosphate] |  |  |  |  |  |  | < 30 | 90 to 100 | 60 to 90 | 60 to 90 | 60 to 90
11 | O=C(O)c1cnc(Oc2ccc3c(c2)COB3O)c(Cl)c1 [D49, 5-Chloro-6-(1-hydroxy-1,3-dihydrobenzo[c][1,2]oxaborol-5-yloxy)nicotinic acid] | 4 to 10 | 4 to 10 | 4 to 10 |  |  | 1 to 4 |  |  |  |  | 
12 | OCc1ccc(Oc2ccc3c(c2)COB3O)nc1 [D64, 5-(5-(Hydroxymethyl)pyridin-2-yloxy)benzo[c][1,2]oxaborol-1 (3H)-ol] | 1 to 4 | 4 to 10 | 4 to 10 | > 10 | 4 to 10 |  |  |  |  |  | 
13 | CC(C)(C)/[N+]([O-])=C/c1ccc(Oc2ccc3c(c2)COB3O)nc1 [D70, (Z)—N-((6-(1-hydroxy-1,3-dihydrobenzo[c][1,2]oxaborol-5-yloxy)pyridin-3-yl)methylene)-2-methylpropan-2-amine oxide] | 1 to 4 | < 1 | 1 to 4 |  |  | 1 to 4 |  |  |  |  | 
14 | CN(C)CCOC(=O)c1ccc(Oc2ccc3c(c2)COB3O)cc1 [D75, 4-(1-Hydroxy-1,3-dihydro-benzo[c][1,2]oxaborol-5-yloxy)-benzoic acid 2-dimethylamino-ethyl ester] | 1 to 4 | 1 to 4 | 4 to 10 | 4 to 10 | > 10 |  |  |  |  |  | 
15 | O=C(NCCO)c1ccc(Oc2ccc3c(c2)COB3O)cc1 [D77, 4-(1-Hydroxy-1,3-dihydro-benzo[c][1,2]oxaborol-5-yloxy)-N-(2-hydroxy-ethyl)-benzamide] | > 10 | 1 to 4 | 1 to 4 | > 10 | 4 to 10 |  |  |  |  |  | 
16 | CN1CCN(C(=O)c2ccc(Oc3ccc4c(c3)COB4O)cc2)CC1 [D79, [4-(1-Hydroxy-1,3-dihydro-benzo[c][1,2]oxaborol-5-yloxy)-phenyl]-(4-methyl-piperazin-1-yl)-methanone] | > 10 | > 10 | > 10 | > 10 | > 10 |  |  |  |  |  | 
17 | CC(=O)N1CCN(C(=O)c2ccc(Oc3ccc4c(c3)COB4O)cc2)CC1 [D80, 1-{4-[4-(1-Hydroxy-1,3-dihydro-benzo[c][1,2]oxaborol-5-yloxy)-benzoyl]-piperazin-1-yl}-ethanone] | > 10 | > 10 | > 10 | > 10 | > 10 |  |  |  |  |  | 
18 | CN(C)CCNC(=O)c1ccc(Oc2ccc3c(c2)COB3O)cc1 [D81, N-(2-Dimethylamino-ethyl)-4-(1-hydroxy-1,3-dihydro-benzo[c][1,2]oxaborol-5-yloxy)-benzamide] | > 10 | > 10 | > 10 | 4 to 10 | > 10 |  |  |  |  |  | 
19 | N#Cc1ccc(Oc2ccc3c(c2)COB3O)nc1O [D108, 2-hydroxy-6-(1-hydroxy-1,3-dihydrobenzo[c][1,2]oxaborol-5-yloxy)nicotinonitrile] |  |  |  |  |  | 4 to 10 |  |  |  |  | 
20 | COc1nc(Oc2ccc3c(c2F)COB3O)ccc1C#N [D114, 6-(4-Fluoro-1-hydroxy-1,3-dihydrobenzo[c][1,2]oxaborol-5-yloxy)-2-methoxynicotinonitrile] | < 1 | < 1 | < 1 | < 1 | > 10 |  |  |  |  |  | 
21 | NCc1ccc(Oc2ccc3c(c2)COB3O)nc1NCCO [D117] | 1 to 4 | 1 to 4 | > 10 | 1 to 4 | > 10 |  |  |  |  |  | 
22 | N#Cc1ccc(Oc2ccc3c(c2)COB3O)nc1NCc1ccccc1 [D121, 2-Benzylamino-6-(1-hydroxy-1,3-dihydro-benzo[c][1,2]oxaborol-5-yloxy)-nicotinonitrile] | < 1 | < 1 | < 1 | < 1 | 1 to 4 |  |  |  |  |  | 
23 | CC(C)(C)Nc1nc(Oc2ccc3c(c2)COB3O)ccc1C#N [D129, 2-tert-butylamino-6-(1-hydroxy-1,3-dihydro-benzo[c][1,2]oxaborol-5-yloxy)-nicotinonitrile] | < 1 |  |  |  |  | < 1 |  |  |  |  | 
24 | N#Cc1ccc(Oc2ccc3c(c2)COB3O)nc1NCCO [D132, 6-(1-hydroxy-1,3-dihydro-benzo[c][1,2]oxaborol-5-yloxy)-2-(2-hydroxy-ethylamino)-nicotinonitrile] | < 1 | < 1 | < 1 | < 1 | < 1 |  |  |  |  |  | 
25 | N#Cc1ccc(Oc2ccc3c(c2)COB3O)c(OC2CCCC2)c1 [D133, 3-(cyclopentyloxy)-4-(1-hydroxy-1,3-dihydrobenzo[c][1,2]oxaborol-5-yloxy)benzonitrile] | < 1 |  |  |  |  | < 1 |  |  |  |  | 
26 | N#Cc1ccc(Oc2ccc3c(c2)COB3O)c(OCC2CC2)c1 [D134, 3-(cyclopropylmethoxy)-4-(1-hydroxy-1,3-dihydrobenzo[c][1,2]oxaborol-5-yloxy)benzonitrile] | < 1 |  |  |  |  | < 1 |  |  |  |  | 
27 | N#Cc1ccc(Oc2ccc3c(c2)COB3O)c(OCC2CCCC2)c1 [D135, 3-(cyclopentylmethoxy)-4-(1-hydroxy-1,3-dihydrobenzo[c][1,2]oxaborol-5-yloxy)benzonitrile] | < 1 |  |  |  |  | < 1 |  |  |  |  | 
28 | CC(C)COc1nc(Oc2ccc3c(c2)COB3O)ccc1C#N [D136, 6-(1-Hydroxy-1,3-dihydro-benzo[c][1,2]oxaborol-5-yloxy)-2-isobutoxy-nicotinonitrile] | < 1 |  |  |  |  | < 1 |  |  |  |  | 
29 | N#Cc1cc(CNC=O)ccc1Oc1ccc2c(c1)COB2O [D137, 5-[2-Cyano-4-(formylaminomethyl)phenoxy]-1,3-dihydro-1-hydroxy-2,1-benzoxaborole] | 1 to 4 |  |  |  |  |  |  | 60 to 90 | 60 to 90 | 30 to 60 | 30 to 60
